Data as given in the supplement of paper PMC10307832.

Experiments:
Assay in all cases: relative viability (nuclei count vs DMSO), 5 days (fraction); higher = more cells survive
A-427 = test system: A-427
How it was run: (§1)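 Relative viability was taken as the ratio of nuclei in treated wells to nuclei in vehicle wells. Lung cancer cell lines in 1536-well plates received compounds by pin tool one day after seeding, either one drug alone or a fixed anchor-drug dose plus five library-drug doses (not always all listed) in √10 steps. Nuclei were counted on 4× images after 5 days of treatment, and values are medians of duplicate plates.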

HCC-15 = test system: HCC-15
How it was run: as §1

HCC-78 = test system: HCC-78
How it was run: as §1

HOP-62 = test system: HOP-62
How it was run: as §1

LC-2-ad = test system: LC-2-ad
How it was run: as §1

LXF-289 = test system: LXF-289
How it was run: as §1

NCI-H1734 = test system: NCI-H1734
How it was run: as §1

NCI-H1755 = test system: NCI-H1755
How it was run: as §1

NCI-H1792 = test system: NCI-H1792
How it was run: as §1

NCI-H1915 = test system: NCI-H1915
How it was run: as §1

NCI-H1975 = test system: NCI-H1975
How it was run: as §1

NCI-H2126 = test system: NCI-H2126
How it was run: as §1

NCI-H2228 = test system: NCI-H2228
How it was run: as §1

NCI-H2342 = test system: NCI-H2342
How it was run: as §1

NCI-H2347 = test system: NCI-H2347
How it was run: as §1

NCI-H358 = test system: NCI-H358
How it was run: as §1

NCI-H522 = test system: NCI-H522
How it was run: as §1

NCI-H647 = test system: NCI-H647
How it was run: as §1

PC-3 [JPC-3] = test system: PC-3 [JPC-3]
How it was run: as §1

RERF-LC-KJ = test system: RERF-LC-KJ
How it was run: as §1

SK-LU-1 = test system: SK-LU-1
How it was run: as §1

SW 1573 = test system: SW 1573
How it was run: as §1

## O=c1cc(-c2cccc3c2Sc2ccccc2S3)oc(N2CCOCC2)c1 + Cc1nc(Nc2ncc(C(=O)Nc3c(C)cccc3Cl)s2)cc(N2CCN(CCO)CC2)n1 [Dasatinib] (partner 0.075 µM)
A-427; first compound 0.08 µM
  relative viability: 0.695
A-427; first compound 0.253 µM
  relative viability: 0.871
A-427; first compound 0.8 µM
  relative viability: 0.744
A-427; first compound 8 µM
  relative viability: 0.884
HCC-15; first compound 0.08 µM
  relative viability: 0.606
HCC-15; first compound 0.253 µM
  relative viability: 0.733
HCC-15; first compound 0.8 µM
  relative viability: 0.546
HCC-15; first compound 2.53 µM
  relative viability: 0.563
HCC-15; first compound 8 µM
  relative viability: 0.659
HCC-78; first compound 0.08 µM
  relative viability: 0.395
HCC-78; first compound 0.253 µM
  relative viability: 0.553
HCC-78; first compound 0.8 µM
  relative viability: 0.284
HCC-78; first compound 2.53 µM
  relative viability: 0.329
HCC-78; first compound 8 µM
  relative viability: 0.389
HOP-62; first compound 0.08 µM
  relative viability: 0.615
HOP-62; first compound 0.253 µM
  relative viability: 0.835
HOP-62; first compound 0.8 µM
  relative viability: 0.679
HOP-62; first compound 2.53 µM
  relative viability: 0.562
HOP-62; first compound 8 µM
  relative viability: 0.543
LC-2-ad; first compound 0.08 µM
  relative viability: 0.648
LC-2-ad; first compound 0.253 µM
  relative viability: 0.584
LC-2-ad; first compound 0.8 µM
  relative viability: 0.532
LC-2-ad; first compound 2.53 µM
  relative viability: 0.405
LC-2-ad; first compound 8 µM
  relative viability: 0.461
LXF-289; first compound 0.08 µM
  relative viability: 0.219
LXF-289; first compound 0.253 µM
  relative viability: 0.21
LXF-289; first compound 0.8 µM
  relative viability: 0.226
LXF-289; first compound 2.53 µM
  relative viability: 0.239
LXF-289; first compound 8 µM
  relative viability: 0.224
NCI-H1734; first compound 0.08 µM
  relative viability: 0.469
NCI-H1734; first compound 0.253 µM
  relative viability: 0.49
NCI-H1734; first compound 0.8 µM
  relative viability: 0.503
NCI-H1734; first compound 8 µM
  relative viability: 0.513
NCI-H1755; first compound 0.08 µM
  relative viability: 0.434
NCI-H1755; first compound 0.253 µM
  relative viability: 0.44
NCI-H1755; first compound 0.8 µM
  relative viability: 0.416
NCI-H1755; first compound 2.53 µM
  relative viability: 0.324
NCI-H1755; first compound 8 µM
  relative viability: 0.381
NCI-H1792; first compound 0.08 µM
  relative viability: 0.791
NCI-H1792; first compound 0.253 µM
  relative viability: 1.01
NCI-H1792; first compound 0.8 µM
  relative viability: 0.617
NCI-H1792; first compound 2.53 µM
  relative viability: 0.728
NCI-H1792; first compound 8 µM
  relative viability: 1.04
NCI-H1915; first compound 0.08 µM
  relative viability: 0.296
NCI-H1915; first compound 0.253 µM
  relative viability: 0.351
NCI-H1915; first compound 0.8 µM
  relative viability: 0.309
NCI-H1915; first compound 2.53 µM
  relative viability: 0.306
NCI-H1915; first compound 8 µM
  relative viability: 0.337
NCI-H1975; first compound 0.08 µM
  relative viability: 0.355
NCI-H1975; first compound 0.253 µM
  relative viability: 0.35
NCI-H1975; first compound 0.8 µM
  relative viability: 0.219
NCI-H1975; first compound 2.53 µM
  relative viability: 0.239
NCI-H1975; first compound 8 µM
  relative viability: 0.326
NCI-H2126; first compound 0.08 µM
  relative viability: 0.59
NCI-H2126; first compound 0.253 µM
  relative viability: 0.456
NCI-H2126; first compound 0.8 µM
  relative viability: 0.43
NCI-H2126; first compound 2.53 µM
  relative viability: 0.534
NCI-H2126; first compound 8 µM
  relative viability: 0.495
NCI-H2228; first compound 0.08 µM
  relative viability: 0.547
NCI-H2228; first compound 0.253 µM
  relative viability: 0.6
NCI-H2228; first compound 0.8 µM
  relative viability: 0.625
NCI-H2228; first compound 2.53 µM
  relative viability: 0.402
NCI-H2228; first compound 8 µM
  relative viability: 0.51
NCI-H2342; first compound 0.08 µM
  relative viability: 0.312
NCI-H2342; first compound 0.253 µM
  relative viability: 0.309
NCI-H2342; first compound 0.8 µM
  relative viability: 0.304
NCI-H2342; first compound 2.53 µM
  relative viability: 0.262
NCI-H2342; first compound 8 µM
  relative viability: 0.336
NCI-H2347; first compound 0.08 µM
  relative viability: 0.298
NCI-H2347; first compound 0.253 µM
  relative viability: 0.286
NCI-H2347; first compound 0.8 µM
  relative viability: 0.296
NCI-H2347; first compound 2.53 µM
  relative viability: 0.304
NCI-H2347; first compound 8 µM
  relative viability: 0.298
NCI-H358; first compound 0.08 µM
  relative viability: 0.145
NCI-H358; first compound 0.253 µM
  relative viability: 0.163
NCI-H358; first compound 0.8 µM
  relative viability: 0.148
NCI-H358; first compound 2.53 µM
  relative viability: 0.152
NCI-H358; first compound 8 µM
  relative viability: 0.189
NCI-H522; first compound 0.08 µM
  relative viability: 0.895
NCI-H522; first compound 0.253 µM
  relative viability: 0.983
NCI-H522; first compound 0.8 µM
  relative viability: 0.872
NCI-H522; first compound 2.53 µM
  relative viability: 0.71
NCI-H522; first compound 8 µM
  relative viability: 0.781
NCI-H647; first compound 0.08 µM
  relative viability: 0.128
NCI-H647; first compound 0.253 µM
  relative viability: 0.205
NCI-H647; first compound 0.8 µM
  relative viability: 0.208
NCI-H647; first compound 2.53 µM
  relative viability: 0.123
NCI-H647; first compound 8 µM
  relative viability: 0.155
PC-3 [JPC-3]; first compound 0.08 µM
  relative viability: 1
PC-3 [JPC-3]; first compound 0.253 µM
  relative viability: 0.949
PC-3 [JPC-3]; first compound 0.8 µM
  relative viability: 1.07
PC-3 [JPC-3]; first compound 2.53 µM
  relative viability: 0.828
PC-3 [JPC-3]; first compound 8 µM
  relative viability: 1.05
RERF-LC-KJ; first compound 0.08 µM
  relative viability: 0.685
RERF-LC-KJ; first compound 0.253 µM
  relative viability: 0.975
RERF-LC-KJ; first compound 0.8 µM
  relative viability: 0.918
RERF-LC-KJ; first compound 2.53 µM
  relative viability: 0.758
RERF-LC-KJ; first compound 8 µM
  relative viability: 0.74
SK-LU-1; first compound 0.08 µM
  relative viability: 0.156
SK-LU-1; first compound 0.253 µM
  relative viability: 0.17
SK-LU-1; first compound 0.8 µM
  relative viability: 0.205
SK-LU-1; first compound 2.53 µM
  relative viability: 0.18
SK-LU-1; first compound 8 µM
  relative viability: 0.182
SW 1573; first compound 0.08 µM
  relative viability: 0.417
SW 1573; first compound 0.253 µM
  relative viability: 0.66
SW 1573; first compound 0.8 µM
  relative viability: 0.706
SW 1573; first compound 2.53 µM
  relative viability: 0.436
SW 1573; first compound 8 µM
  relative viability: 0.461
